Series [1] is described as follows: Hygroscopicity and solid-state stability. Format: physicochemical.
Series [2] concerns the target T1, human AR (androgen receptor) (Homo sapiens, UniProt P10275).
T1 construct: expressed in transfected cells; host or cells: HEK293 (lysate, '293-AR lysate')
T1 sequence (P10275 1-920): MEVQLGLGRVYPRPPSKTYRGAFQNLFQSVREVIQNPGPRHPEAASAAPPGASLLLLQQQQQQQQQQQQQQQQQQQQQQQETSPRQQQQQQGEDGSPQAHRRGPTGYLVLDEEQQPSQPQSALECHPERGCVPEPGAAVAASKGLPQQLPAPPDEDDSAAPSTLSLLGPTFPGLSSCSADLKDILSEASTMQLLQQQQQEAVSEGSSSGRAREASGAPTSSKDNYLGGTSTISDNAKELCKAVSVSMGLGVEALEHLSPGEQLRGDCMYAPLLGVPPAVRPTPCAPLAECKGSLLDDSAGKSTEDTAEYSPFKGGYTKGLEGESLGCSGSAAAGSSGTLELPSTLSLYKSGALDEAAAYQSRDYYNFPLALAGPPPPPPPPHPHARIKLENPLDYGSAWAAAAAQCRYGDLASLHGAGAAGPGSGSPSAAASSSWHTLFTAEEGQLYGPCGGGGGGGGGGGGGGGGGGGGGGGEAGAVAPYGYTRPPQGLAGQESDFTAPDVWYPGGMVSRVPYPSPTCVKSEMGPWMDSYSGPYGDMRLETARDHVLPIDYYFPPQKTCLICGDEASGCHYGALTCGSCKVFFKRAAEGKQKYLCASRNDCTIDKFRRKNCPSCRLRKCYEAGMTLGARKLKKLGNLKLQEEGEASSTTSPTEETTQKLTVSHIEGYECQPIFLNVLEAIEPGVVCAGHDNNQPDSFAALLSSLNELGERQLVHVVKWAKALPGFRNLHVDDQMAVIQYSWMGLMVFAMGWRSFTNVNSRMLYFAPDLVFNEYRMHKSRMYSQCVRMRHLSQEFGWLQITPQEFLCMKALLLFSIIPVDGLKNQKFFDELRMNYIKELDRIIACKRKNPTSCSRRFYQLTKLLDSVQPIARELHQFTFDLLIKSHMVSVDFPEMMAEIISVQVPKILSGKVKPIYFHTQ
The series can be described thus: Nuclear hormone receptor binding assay, AR. On the procedure: Cell lysates from human embryonic kidney HEK293 cells overexpressing human GR (glucocorticoid receptor), AR (androgen receptor), MR (mineralocorticoid receptor), or PR (progesterone receptor) are used for receptor-ligand competition binding assays to determine Ki values.
Briefly, steroid receptor competition binding assays are run in a buffer containing 20 mM Hepes buffer (pH=7.6), 0.2 mM EDTA, 75 mM NaCl, 1.5 mM MgCl2, 20% glycerol, 20 mM sodium molybdate, 0.2 mM DTT (dithiothreitol), 20 μg/mL aprotinin and 20 μg/mL leupeptin. Typically, steroid receptor binding assays include radio-labeled ligands, such as 0.3 nM [^3H]-dexamethasone for GR binding, 0.36 nM [^3H]-methyltrienolone for AR binding, 0.25 nM [^3H]-aldosterone for MR binding, and 0.29 nM [^3H]-methyltrienolone for PR binding, and either 20 μg 293-GR lysate, 22 μg 293-AR lysate, 20 μg 293-MR lysate or 40 μg 293-PR lysate per well. Assays are typically run in 96-well format. Competing test compounds are added at various concentrations ranging from about 0.01 nM to 10 μM. Non-specific binding is determined in the presence of 500 nM dexamethasone for GR binding, 500 nM aldosterone for MR binding, or 500 nM methyltrienolone for AR and PR binding. […] After an incubation of 2 hours, plates are read in a Wallac Microbeta counter. […]

The source of these data is patent publication US8101760B2, “Glucocorticoid receptor modulator and methods of use” (Eli Lilly and Company, priority 2007, dated 2012).

One may read the Ki as the equilibrium dissociation constant of an inhibitor or competing ligand from its target.

Take `CC/C(=C1\c2ccc(Cl)cc2OCc2ncccc21)c1cccc(NS(C)(=O)=O)c1` [Compound (I), (E)-N-{3-[1-(8-Chloro-11H-10-oxa-1-aza-dibenzo[a,d]cyclohepten-5-ylidene)-propyl]-phenyl}-methanesulfonamide]: the hygroscopicity entry in series [1] was “non-hygroscopic”. For the same compound, in series [1] (increased temperature, relative humidity, and light exposure), the stability entry was “stable”. In addition, the Ki in series [2] (HEK293 cell lysate expressing human AR, [3H]-methyltrienolone, mean of 5 determinations) worked out at 16.2 nM. Also, the “greater affinity for GR relative to AR” value in series [2] (binding selectivity GR vs AR) is on record as at least 30 fold.
